# Data from patent US5441883A, “A3 adenosine receptor, DNA, and uses” (priority 1993, dated 1995).
# Where two headings read alike, the source gives them in different places.
# How the values were obtained:
# A3 adenosine receptor [1] = biological target: T1, A3 adenosine receptor (Rattus norvegicus, UniProt P28647); experiment: biochemical; type: binding; settings: for inhibition at 1000 µM: read-out: inhibition of [125I]APNEA binding; for inhibition at 100 µM: read-out: inhibition of specific [125I]APNEA binding; for pharmacological profile of inhibition of [125I]APNEA binding: rank order; for IC50: 0.5 nM [125I]APNEA
# T1 sequence (P28647 1-320): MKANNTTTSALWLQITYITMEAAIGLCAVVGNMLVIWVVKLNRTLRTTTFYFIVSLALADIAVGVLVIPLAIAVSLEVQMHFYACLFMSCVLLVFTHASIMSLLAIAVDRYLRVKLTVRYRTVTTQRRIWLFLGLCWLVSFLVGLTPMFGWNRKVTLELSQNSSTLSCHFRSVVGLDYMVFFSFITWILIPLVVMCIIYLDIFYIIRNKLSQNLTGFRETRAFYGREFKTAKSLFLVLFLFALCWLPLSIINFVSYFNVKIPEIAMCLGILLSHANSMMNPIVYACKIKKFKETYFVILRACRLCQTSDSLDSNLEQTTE
# Method: FIGS. 4A and 4B illustrates competitive binding assays using stably transfected CHO cell membrane preparations.
# (§1) Cell membranes were prepared as follows. COS-7 cells (transient expressors) were harvested 48 hrs after transfection, whereas CHO cells (stable expressors) were grown to confluence in 150 mm plates. Cells were washed twice with ice-cold HOB buffer [15 mM Tris-HCl (pH 7.4), 5 mM MgCl2, 1 mM EDTA] and scraped off plates with a rubber policeman. Cells were then collected by centrifugation at 1,200 rpm (xx g), resuspended in HOB buffer, transferred to a Dounce homogenizer on ice, and homogenized for 20 sec with a CorTarge homogenizer (Eberbach Inc., Ann Arbor, Mich.) at the #3 speed setting. The homogenate was then centrifuged at 2,000 rpm (xx g) for 10 min at 4° C. The supernatant was saved and the pellet resuspended in HOB buffer and subjected to a second round of homogenation. The second homogenate was centrifuged at 2000 rpm (xx g) for 10 min and the pellet was discarded. Supernatants were pooled and centrifuged at 34,000 rpm (xx g) for 45 min. These crude membrane pellets were resuspended in TEM buffer [50 mM Tris-HCl (pH 7.4), 5 mM MgCl2, 1 mM EDTA]. Adenosine deaminase (Sigma, St Louis, Mo.) was added to the membrane suspensions to a concentration of 2 Units/ml and incubated at 37° C. for 30 min. The membrane suspension was subsequently recentrifuged at 34,000 rpm (xx g) for 45 min. The resulting pellet was resuspended in TEM buffer at a protein concentration of about 1 mg/ml and stored in small aliquots at -70° C. The protein concentration was measured according to the method of Lowry et al. (1954, J. Biol. Chem. 207: 1-XXX) using bovine serum albumin as a standard.
# Radioligand binding assays were carried out in duplicate in 500 μl of a solution containing (at final concentrations) 50 mM Tris-HCl (pH 7.4), 5 mM MgCl2, 1 mM EDTA, 0.025 % ascorbic acid, radioligands, and appropriate drugs. […] ([aH]XAC), [^3 H]-labeled 2-[4-(2-[(4-aminophenyl)methylcarbobylamino]ethylaminocarbonyl)ethyl)phenyl]ethylamino-5'-N-ethylcarboxamidoadenosine ([^3 H]PAPA-APEC), and [^3 H]-labeled [2-(4-(2-carboxyethyl)phenylethyamino)5'-N-ethylcarboxamidoadenosine ([^3 H]CGS21680). Receptor binding was initiated by the addition of membrane preparations in an amount equivalent to 20-100 μg protein, and carried out at 37° C. for 1 hr. Nonspecific binding was determined in the presence of 10 μM R-N^6 -phenyl-2-propyladenosine (R-PIA). After incubation, samples were filtered through glass fiber filters (Schleicher and Schuell #32) and washed three times with 4 ml ice-cold 10 mM TrisoHCl (pH 7.4). Radioactivity retained on the filters were counted using a Beckman LS6800 scintillation counter (Beckman Instruments, Palo Alto, Calif.). […] A LIGAND computer program was used for data analysis and curve fitting (Munson & Rodband, 1980, Anal. Biochem. 107: 220-225).
# The A3 receptor was then characterized using competition assays between [^125 I]APNEA A3 receptor binding versus a series of other adenosine receptor ligands. Labeled APNEA was present in these assays at 0.5 nM; unlabled competitors were present at varying concentrations as shown in FIG. 4A.
# A3 adenosine receptor [2] = biological target: T1, A3 adenosine receptor; experiment: cell-based; type: cell-based; settings: for effect on forskolin-stimulated cAMP: 100 μM ATP or ADP; for inhibitory effect of R-PIA and NECA on forskolin-stimulated cAMP production after pertussis toxin pretreatment: 100 ng/ml pertussis toxin, 18 hours
# Method: The concentrations of adenosine agonists used are 100 nM and the concentration of forskolin is 1 μM. Values are obtained from triplicate plates and shown as mean ±S.E.
# The cell were not or pretreated with 100 ng/ml pertussis toxin for 18 hours. The concentration of forskolin and adenosine agonists used are as in FIG. 5.
# It is known that the A 1 adenosine receptor inhibits adenylate cyclase activity and the A2 adenosine receptor stimulates adenylate cyclase respectively (Stiles, ibid.; Williams, ibid.).
# Cells were grown to about 80% confluence in 150 mm dishes, washed twice with Ca^++ and Mg^++ -free PBS buffer and detached from plates with PBS buffer containing 0.02% EDTA. Cells were collected by centrifugation at 800 rpm (xx g) for 10 min at 4° C. and resuspended in an appropriate volume of KRH buffer [140 mM NaCl, 5 mM KCl , 2 mM CaCl2, 1.2 mM MgSO4, 1.2 mM KH2 PO4, 6 mM glucose, 25 mM Hepes-NaOH (pH 7.4)]. The cells were washed once with KRH buffer and resuspended in KRH buffer at a concentration of 10^7 cells/ml. Each of 100 μl aliquots of this cell suspension were added to a glass tube containing 100 μl KRH+200 μM Ro 20-1724 and incubated at 37° C. for 10 min. Prewarmed 200 μl KRH containing 200 μm Ro 20-1724 and test drugs were then added to the cells and mixed. After incubation at 37° C. for 20 min, 400 μl 10.5 mM NaAc (pH 6.2) were added and the glass tubes transferred to a boiling water bath. The incubated cell suspension were boiled for 20 min, and the tubes were then cooled to room temperature and centrifuged at 3000 rpm (xx g) for 15 min.
# For experiments using pertussis toxin pretreatment, aseptic pertussis toxin (Sigma Chemical Co., St. Louis, Mo.) was dissolved in sterile water and added to the medium to a final concentration of 100 ng/ml. Toxin treatment was maintained for approximately 18 hours. The dishes were rinsed once with media immediately prior to the addition of adenosine receptor ligands and processed as described above.
# A3 adenosine receptor [3] = biological target: T1, A3 adenosine receptor; experiment: Direct radioligand binding / Scatchard analysis, stably transfected CHO cell membranes; settings: for specific, high affinity binding to the A3 receptor: radiolabeled ligands
# Description: FIG. 3 illustrates a Scatchard plot of radioligand binding assays for the A3 adenosine receptor performed with the adenosine radioligand [^125 I]APEA and membrane preparations from stably transfected CHO cells.
# The entire coding region of the A3 cDNA insert from R226 was excised from pGem226 and subcloned into either the HindIII/XbaI sites of an RC-RSV expression vector (Invitrogene, San Diego, Calif.) or the HindIII/SmaI sites of pBC12BI (Cullen, 1987, Meth. Enzym. 152: 684-704). The resulting plasmids were called Rc-RSV226 and pBC226 respectively. For transient expression in COS-7 cells, pBC226 plasmid DNA was prepared in large-scale through one cycle of CsCl gradient ultracentrifugation and 45 μg pBC226 DNA were transfected into each 150mm dish of COS-7 cells according to the method of Chen and Okayama (1987, Molec. Cell Biol. 7: 2745-2752). For stable expression in CHO cells, 1 μg Rc-RSV226 plasmid DNA isolated from a small-scale preparation was purified using the Prep-A-Gene kit (Bio-Rad) and transfected into CHO cells by the CaPO4 method (Graham and van der Eb, 1973, Virol. 52: 456-463). After transfection, cells were cultured in DMEM (COS-7 cells) or F-12 (CHO cells) media supplemented with 10% fetal calf serum in a 3% CO2 atmosphere at 37° C. For stable transfection, selection was performed with neomycin (G418; SOURCE) at a concentration of 700 μg/ml; selection was started 72 hr after transfection and continued for 3 weeks. Cell colonies were screened for expression of the A3 adenosine receptor from the R226 expression vectors described herein by Northern blot hybridization of total cellular RNA with random-primed PCR226 probe (Maniatis et al., ibid.).
# as §1
# Radioligand binding assays were carried out in duplicate in 500 μl of a solution containing (at final concentrations) 50 mM Tris-HCl (pH 7.4), 5 mM MgCl2, 1 mM EDTA, 0.025 % ascorbic acid, radioligands, and appropriate drugs. […] ([aH]XAC), [^3 H]-labeled 2-[4-(2-[(4-aminophenyl)methylcarbobylamino]ethylaminocarbonyl)ethyl)phenyl]ethylamino-5'-N-ethylcarboxamidoadenosine ([^3 H]PAPA-APEC), and [^3 H]-labeled [2-(4-(2-carboxyethyl)phenylethyamino)5'-N-ethylcarboxamidoadenosine ([^3 H]CGS21680). Receptor binding was initiated by the addition of membrane preparations in an amount equivalent to 20-100 μg protein, and carried out at 37° C. for 1 hr.
compound,measurement,setting,value
Nc1ncnc2c1ncn2[C@H]1C[C@H](O)[C@@H](CO)O1 [2-deoxyadenosine],inhibition at 1000 µM,A3 adenosine receptor [1]; 1 mM,< 20%
CSc1nc(N)c2ncn([C@@H]3O[C@H](COP(=O)(O)O)[C@@H](O)[C@H]3O)c2n1 [2-methyl-S-AMP],inhibition of [125I]APNEA binding,A3 adenosine receptor [1]; 1 mM,< 20%
Nc1ncnc2c1ncn2[C@@H]1O[C@H](COP(=O)(O)OP(=O)(O)O)[C@@H](O)[C@H]1O [ADP],inhibition at 100 µM,A3 adenosine receptor [1]; 100 μM,25%
same,pharmacological profile of inhibition of [125I]APNEA binding,A3 adenosine receptor [1],R-PIA=NECA>S-PIA>adenosine>ATP=ADP
same,effect on forskolin-stimulated cAMP,A3 adenosine receptor [2],had no effect
Nc1ncnc2c1ncn2[C@@H]1O[C@H](COP(=O)(O)OP(=O)(O)CP(=O)(O)O)[C@@H](O)[C@H]1O [AMP-PCP],inhibition at 1000 µM,A3 adenosine receptor [1],< 20%
"Nc1ccc(CCNc2ncnc3c2ncn3[C@@H]2O[C@H](CO)[C@@H](O)[C@H]2O)cc1I [APNEA, N^6-2-(4-amino-3-iodo-phenyl) ethyladenosine]",saturable binding (Scatchard plot),"A3 adenosine receptor [3]; [125I]APNEA, stably transfected CHO membranes",225 fmol/mg
same,Kd,"A3 adenosine receptor [3]; [125I]APNEA, stably transfected CHO membranes, read-out: Kd (Scatchard plot analysis)",15.5 ± 2.4 nM
same,"affinity at A3 compared with other, well-characterized A1 receptors","A3 adenosine receptor [3]; comparison with literature A1 receptors (Stiles et al., 1985)",about ten-fold lower
same,"specific, high affinity binding to the A3 receptor",A3 adenosine receptor [3]; stably transfected CHO membranes,saturable and high affinity binding
same,"specific, high affinity binding to the A3 receptor","A3 adenosine receptor [3]; stably transfected CHO membranes, listed as [^125 I]APNEA","only adenosine receptor ligand to show specific, high affinity binding to the A3 receptor"
Nc1ncnc2c1ncn2[C@@H]1O[C@H](COP(=O)(O)OP(=O)(O)OP(=O)(O)O)[C@@H](O)[C@H]1O [ATP],pharmacological profile of inhibition of [125I]APNEA binding,A3 adenosine receptor [1],R-PIA=NECA>S-PIA>adenosine>ATP=ADP
same,inhibition at 100 µM,A3 adenosine receptor [1],50%
same,effect on forskolin-stimulated cAMP,A3 adenosine receptor [2],had no effect
Nc1ncnc2c1ncn2[C@@H]1O[C@H](COP(=O)(O)OP(=O)(O)NP(=O)(O)O)[C@@H](O)[C@H]1O [App(NH)p],inhibition at 1000 µM,A3 adenosine receptor [1]; 1 mM,< 20%
Nc1nc2c(ncn2[C@@H]2O[C@H](COP(=O)(O)OP(=O)(O)NP(=O)(O)O)[C@@H](O)[C@H]2O)c(=O)[nH]1 [Gpp(NH)p],competition for labeled APNEA binding,"A3 adenosine receptor [1]; Gpp(NH)p, varying concentrations",60-70%
same,IC50,A3 adenosine receptor [1]; Table I and text,1000 nM
CC(C)Cn1c(=O)n(C)c(=O)c2[nH]cnc21 [IBMX],ability to compete with [125I]APNEA for A3 receptor binding,A3 adenosine receptor [1]; 100 μM,none of the methylxanthines tested were capable of competing with labeled APNEA
C[C@H](Cc1ccccc1)Nc1ncnc2c1ncn2[C@@H]1O[C@H](CO)[C@@H](O)[C@H]1O [R-PIA],IC50,A3 adenosine receptor [1]; Table I,63 ± 19 nM
same,pharmacological profile of inhibition of [125I]APNEA binding,A3 adenosine receptor [1],R-PIA=NECA>S-PIA>adenosine>ATP=ADP
same,inhibitory effect of R-PIA and NECA on forskolin-stimulated cAMP production after pertussis toxin pretreatment,A3 adenosine receptor [2],almost completely abolished
same,inhibition of forskolin-stimulated cAMP accumulation,"A3 adenosine receptor [2]; 1 μM forskolin, 100 nM agonist",20-50%
same,EC50,A3 adenosine receptor [2]; Table II,18 ± 5.6 nM
C[C@@H](Cc1ccccc1)Nc1ncnc2c1ncn2[C@@H]1O[C@H](CO)[C@@H](O)[C@H]1O [S-PIA],IC50,A3 adenosine receptor [1]; Table I,1140 ± 490 nM
same,pharmacological profile of inhibition of [125I]APNEA binding,A3 adenosine receptor [1],R-PIA=NECA>S-PIA>adenosine>ATP=ADP
O=c1ccn([C@@H]2O[C@H](COP(=O)(O)OP(=O)(O)OP(=O)(O)O)[C@@H](O)[C@H]2O)c(=O)[nH]1 [UTP],inhibition at 1000 µM,A3 adenosine receptor [1]; 1 mM,< 20%
C[N+](C)(C)CCOC(N)=O [carbacol],ability to compete with [125I]APNEA for A3 receptor binding,A3 adenosine receptor [1]; 100 μM,failed to compete with labeled APNEA
NCCc1ccc(O)c(O)c1 [dopamine],ability to compete with [125I]APNEA for A3 receptor binding,A3 adenosine receptor [1]; 100 μM,failed to compete with labeled APNEA
CC(C)NCC(O)c1ccc(O)c(O)c1 (centres unmarked) [isoproterenol],ability to compete with [125I]APNEA for A3 receptor binding,A3 adenosine receptor [1]; 100 μM,failed to compete with labeled APNEA
Cc1ccc(N(CC2=NCCN2)c2cccc(O)c2)cc1 [phentoamine],ability to compete with [125I]APNEA for A3 receptor binding,A3 adenosine receptor [1]; 100 μM,failed to compete with labeled APNEA
NCCc1c[nH]c2ccc(O)cc12 [serotonin],ability to compete with [125I]APNEA for A3 receptor binding,A3 adenosine receptor [1]; 100 μM,failed to compete with labeled APNEA
pertussis toxin,inhibitory effect of R-PIA and NECA on forskolin-stimulated cAMP production after pertussis toxin pretreatment,A3 adenosine receptor [2],almost completely abolished
